Test results taken from patent US8039639B2, “Kinase inhibitors and methods of use thereof” (Array BioPharma Inc., priority 2006, dated 2011).
Entries after “also recorded” stand apart in the source; their conditions may differ.

Tests used:
VEGFR2 = target: T1, VEGFR2 (Homo sapiens, UniProt P35968); assay: VEGFR2 autophosphorylation (Tyr1175) in VEGF-stimulated HUVECs; assay type: cell-based; details: 20 ng/mL VEGF for 5 minutes, read-out: IC50, VEGFR2 autophosphorylation at Tyrosine residue 1175
T1 construct: endogenous in cells; host or cells: HUVEC
T1 sequence (P35968 20-1356): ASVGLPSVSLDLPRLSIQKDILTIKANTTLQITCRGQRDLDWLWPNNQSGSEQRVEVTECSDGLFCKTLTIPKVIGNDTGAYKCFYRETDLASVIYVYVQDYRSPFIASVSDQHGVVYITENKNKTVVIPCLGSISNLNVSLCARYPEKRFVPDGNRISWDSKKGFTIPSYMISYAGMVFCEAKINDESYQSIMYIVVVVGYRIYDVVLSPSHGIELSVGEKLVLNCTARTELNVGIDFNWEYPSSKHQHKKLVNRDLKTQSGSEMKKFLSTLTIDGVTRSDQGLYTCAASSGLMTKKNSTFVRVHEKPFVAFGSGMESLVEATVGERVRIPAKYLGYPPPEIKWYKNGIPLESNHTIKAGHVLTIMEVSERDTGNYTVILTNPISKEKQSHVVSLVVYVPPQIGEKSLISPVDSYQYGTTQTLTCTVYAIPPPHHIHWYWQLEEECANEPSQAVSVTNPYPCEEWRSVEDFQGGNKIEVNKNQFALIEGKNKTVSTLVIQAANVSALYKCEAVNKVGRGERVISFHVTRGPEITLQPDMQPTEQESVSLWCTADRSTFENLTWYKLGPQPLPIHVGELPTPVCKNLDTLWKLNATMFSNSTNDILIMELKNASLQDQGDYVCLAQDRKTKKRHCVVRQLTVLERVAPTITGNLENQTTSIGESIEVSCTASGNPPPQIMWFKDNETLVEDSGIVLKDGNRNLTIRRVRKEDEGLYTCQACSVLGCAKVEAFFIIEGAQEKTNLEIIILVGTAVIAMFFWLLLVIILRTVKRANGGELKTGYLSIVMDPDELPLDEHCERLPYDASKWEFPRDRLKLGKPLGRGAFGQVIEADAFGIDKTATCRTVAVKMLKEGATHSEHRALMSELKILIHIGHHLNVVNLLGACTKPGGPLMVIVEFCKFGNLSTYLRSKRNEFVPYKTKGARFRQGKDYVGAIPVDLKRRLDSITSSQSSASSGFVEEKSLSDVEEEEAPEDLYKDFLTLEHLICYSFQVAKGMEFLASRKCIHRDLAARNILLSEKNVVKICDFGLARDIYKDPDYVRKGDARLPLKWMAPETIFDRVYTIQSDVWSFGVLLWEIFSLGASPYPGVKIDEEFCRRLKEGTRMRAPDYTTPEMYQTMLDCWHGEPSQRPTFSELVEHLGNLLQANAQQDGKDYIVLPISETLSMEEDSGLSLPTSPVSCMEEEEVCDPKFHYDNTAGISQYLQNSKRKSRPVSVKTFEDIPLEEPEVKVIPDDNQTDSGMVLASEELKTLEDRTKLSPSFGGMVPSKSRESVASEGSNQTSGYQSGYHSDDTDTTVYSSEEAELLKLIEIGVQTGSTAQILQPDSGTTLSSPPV
Method: Lysates of the various treatments were prepared and immunoblotted with antibodies specific for VEGFR2 phosphorylated at Tyr1175. […] Phospho-VEGFR2 signal was normalized to GAPDH as a loading control.

VEGFR = VEGFR (Homo sapiens, UniProt P35968); assay: protein kinase IC50 determination (ATP at Km); assay type: biochemical; details: ATP concentration at Km
Chain of VEGFR (P35968 20-1356): as above

K562 cells = assay: K562 subcutaneous tumor model (BCR-Abl-driven tumors); assay type: in vivo, Female Scid-beige mice; details: for % Regression / Complete responses: K562 tumors, PO ×7, dosed as Compound 74; for Complete responses: n=8
Method: Test compounds were administered by oral gavage at the indicated doses and schedules when tumors reached 200±50 mm^3 in size. […] Tumor size and body weight were monitored throughout the study.

[1] = test system: bFGF-induced angiogenesis; assay: bFGF matrigel plug angiogenesis in vivo; set-up: species or system Female CD-1 mice; details: PO, BID×7, dosed as prodrug Compound 74
Method: Female CD-1 mice (19-22 g), n=4 per treatment group, were implanted subcutaneously with 500 μL growth factor reduced matrigel containing 1500 ng/mL bFGF or 0 ng/mL bFGF as a negative control. Test compounds were administered by oral gavage at the indicated doses and schedules. […] Sutent is an inhibitor of KDRand served as a positive drug control in this study. Animals were euthanized on day 7. Matrigel was harvested, weighed and homogenized in phosphate buffered saline, pH 7.4. Samples were centrifuged and the resulting lysate analyzed for hemoglobin concentration by colorimetric reaction.

CYP3A4 = target: T2, CYP3A4 (Homo sapiens, UniProt P08684); assay: CYP inhibition assay (LC/MS, pooled human liver microsomes); assay type: in vitro ADME; details: n=1
T2 construct: using pooled human liver microsomes (n=1); from tissue; host or cells: pooled human liver microsomes
T2 sequence (P08684 whole entry): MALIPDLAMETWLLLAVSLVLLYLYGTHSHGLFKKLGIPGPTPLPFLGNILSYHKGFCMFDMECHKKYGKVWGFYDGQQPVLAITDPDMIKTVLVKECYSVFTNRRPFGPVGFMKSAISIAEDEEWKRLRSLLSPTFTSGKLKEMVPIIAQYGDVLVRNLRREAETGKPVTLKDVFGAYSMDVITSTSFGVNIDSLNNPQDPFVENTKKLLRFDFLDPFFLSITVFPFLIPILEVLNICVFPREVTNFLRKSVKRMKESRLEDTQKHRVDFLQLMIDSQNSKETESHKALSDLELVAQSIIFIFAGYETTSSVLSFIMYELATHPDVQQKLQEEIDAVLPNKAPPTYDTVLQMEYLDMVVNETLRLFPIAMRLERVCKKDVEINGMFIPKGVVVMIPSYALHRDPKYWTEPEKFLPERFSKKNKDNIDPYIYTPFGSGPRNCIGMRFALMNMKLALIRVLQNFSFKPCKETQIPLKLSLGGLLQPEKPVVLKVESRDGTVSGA

sodium channel (site 2) = assay: Off-target ligand displacement assay, panel of 28 receptors, ion channels and transporters; assay type: binding; details: at 10 μM; only hit among 28 entities screened
CYP2C9 = target: T3, CYP2C9 (Homo sapiens, UniProt P11712); assay: CYP inhibition assay (LC/MS, pooled human liver microsomes); assay type: in vitro ADME; details: n=1
T3 construct: using pooled human liver microsomes (n=1); from tissue; host or cells: pooled human liver microsomes
T3 sequence (P11712 whole entry): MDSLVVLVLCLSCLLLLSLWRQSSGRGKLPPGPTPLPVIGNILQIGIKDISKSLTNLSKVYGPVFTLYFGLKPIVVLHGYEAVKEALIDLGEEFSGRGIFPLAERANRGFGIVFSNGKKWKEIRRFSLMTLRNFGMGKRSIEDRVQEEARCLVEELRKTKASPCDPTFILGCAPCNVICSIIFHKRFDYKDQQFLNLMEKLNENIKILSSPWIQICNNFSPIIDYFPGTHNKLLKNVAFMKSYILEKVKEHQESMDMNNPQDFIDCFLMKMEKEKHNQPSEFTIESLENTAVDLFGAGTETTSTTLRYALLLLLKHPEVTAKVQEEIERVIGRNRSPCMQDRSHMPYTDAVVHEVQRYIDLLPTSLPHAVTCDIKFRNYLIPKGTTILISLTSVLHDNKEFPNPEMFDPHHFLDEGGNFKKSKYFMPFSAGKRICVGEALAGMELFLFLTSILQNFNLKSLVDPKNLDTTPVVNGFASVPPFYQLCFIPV

hERG = hERG (Homo sapiens, UniProt Q12809); assay: hERG patch clamp; assay type: cell-based; details: at 10 μM
Chain of hERG (Q12809 whole entry): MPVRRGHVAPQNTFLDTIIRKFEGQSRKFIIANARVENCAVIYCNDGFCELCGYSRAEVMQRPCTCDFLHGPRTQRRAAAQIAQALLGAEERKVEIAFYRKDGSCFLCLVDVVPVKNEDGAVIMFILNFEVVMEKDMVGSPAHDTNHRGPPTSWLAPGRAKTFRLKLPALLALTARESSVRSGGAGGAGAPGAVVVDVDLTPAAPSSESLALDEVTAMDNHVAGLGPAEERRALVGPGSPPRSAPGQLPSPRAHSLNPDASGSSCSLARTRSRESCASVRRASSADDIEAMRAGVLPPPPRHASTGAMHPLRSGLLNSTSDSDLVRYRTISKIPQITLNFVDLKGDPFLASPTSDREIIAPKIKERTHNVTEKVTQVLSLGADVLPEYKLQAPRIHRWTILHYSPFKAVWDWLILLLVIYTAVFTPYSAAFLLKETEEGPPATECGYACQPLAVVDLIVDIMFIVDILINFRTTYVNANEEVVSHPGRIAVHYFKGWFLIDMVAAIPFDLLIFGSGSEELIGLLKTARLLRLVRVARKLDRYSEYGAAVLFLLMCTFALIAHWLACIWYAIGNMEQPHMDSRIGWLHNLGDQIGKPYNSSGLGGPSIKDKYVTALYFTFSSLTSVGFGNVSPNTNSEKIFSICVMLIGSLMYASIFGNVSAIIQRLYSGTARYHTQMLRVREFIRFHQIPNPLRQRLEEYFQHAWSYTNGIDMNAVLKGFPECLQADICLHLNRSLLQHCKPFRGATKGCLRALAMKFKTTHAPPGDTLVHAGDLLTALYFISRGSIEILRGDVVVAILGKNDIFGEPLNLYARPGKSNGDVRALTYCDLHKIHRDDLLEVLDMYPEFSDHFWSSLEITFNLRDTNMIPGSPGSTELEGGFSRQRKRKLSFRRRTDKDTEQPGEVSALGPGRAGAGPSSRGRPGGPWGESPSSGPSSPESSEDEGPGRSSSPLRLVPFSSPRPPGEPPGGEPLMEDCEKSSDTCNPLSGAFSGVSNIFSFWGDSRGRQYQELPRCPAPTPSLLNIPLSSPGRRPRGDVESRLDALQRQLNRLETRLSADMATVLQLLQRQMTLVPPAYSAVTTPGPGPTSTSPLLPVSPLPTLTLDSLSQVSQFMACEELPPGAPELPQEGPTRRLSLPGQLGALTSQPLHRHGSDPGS
Method: hERG assay was performed using a standard patch clamp protocol. AMES assay (bacterial reverse mutation assay) was performed according to protocol. […] In vitro and in vivo micronucleus assays were performed according to protocol.

Abl (T315I) = Abl (T315I) (Homo sapiens, UniProt P00519, T315I); assay: protein kinase IC50 determination (ATP at Km); assay type: biochemical; details: ATP concentration at Km
Erk and AKT = assay: phospho-Erk and phospho-AKT in Ang-1 stimulated HUVECs; assay type: cell-based; details: Homo sapiens, HUVEC, 10 min, 200 ng/mL Ang-1 for 10 minutes, read-out: IC50, downstream effectors Erk and AKT
Text: (§1) Tie2 was then immunopurified (IP) and immunoblotted with anti-phosphotyrosine (pTyr) and anti-Tie2 antibodies to assess the degree of Tie2 autophosphorylation. Lysates were immunoblotted with anti-phospho-Erk and anti-phospho-AKT (Ser473) antibodies, respectively. Signals were quantified and normalized to GAPDH as a loading control. The results were shown in an immunoblot and a graph.

[2] = 14-day tolerability study in mice; assay type: in vivo; details: 14 days, dosed as Compound 74
Method: Weight loss was assessed throughout study. Blood was removed on the final day for clinical chemistries (albumin, alkaline phosphatase, ALT, Amylase, BUN, calcium, cholesterol, creatinine, glucose, phosphate, total bilirubin, TP, Globulin).

BCR-Abl = target: T4, BCR-Abl (Homo sapiens, UniProt P00519); assay: K562 immunoblot for p-Abl, pSTAT5, pCrkL; assay type: cell-based; details: K562 cells, 2 hours, 37-5000 nM
T4 construct: BCR (N-terminal part, natural fusion partner of the Philadelphia-chromosome chimera); endogenous in cells; host or cells: K562; the other entry of the earlier key: BCR (P11274, Breakpoint cluster region protein)

Tie2 = Tie2 (Homo sapiens, UniProt Q02763); assay: Tie2 autophosphorylation in Ang-1 stimulated HUVECs; assay type: cell-based; set-up: endogenous in cells; host or cells: HUVEC; details: 200 ng/mL Ang-1 for 10 minutes
Chain of Tie2 (Q02763 23-1124): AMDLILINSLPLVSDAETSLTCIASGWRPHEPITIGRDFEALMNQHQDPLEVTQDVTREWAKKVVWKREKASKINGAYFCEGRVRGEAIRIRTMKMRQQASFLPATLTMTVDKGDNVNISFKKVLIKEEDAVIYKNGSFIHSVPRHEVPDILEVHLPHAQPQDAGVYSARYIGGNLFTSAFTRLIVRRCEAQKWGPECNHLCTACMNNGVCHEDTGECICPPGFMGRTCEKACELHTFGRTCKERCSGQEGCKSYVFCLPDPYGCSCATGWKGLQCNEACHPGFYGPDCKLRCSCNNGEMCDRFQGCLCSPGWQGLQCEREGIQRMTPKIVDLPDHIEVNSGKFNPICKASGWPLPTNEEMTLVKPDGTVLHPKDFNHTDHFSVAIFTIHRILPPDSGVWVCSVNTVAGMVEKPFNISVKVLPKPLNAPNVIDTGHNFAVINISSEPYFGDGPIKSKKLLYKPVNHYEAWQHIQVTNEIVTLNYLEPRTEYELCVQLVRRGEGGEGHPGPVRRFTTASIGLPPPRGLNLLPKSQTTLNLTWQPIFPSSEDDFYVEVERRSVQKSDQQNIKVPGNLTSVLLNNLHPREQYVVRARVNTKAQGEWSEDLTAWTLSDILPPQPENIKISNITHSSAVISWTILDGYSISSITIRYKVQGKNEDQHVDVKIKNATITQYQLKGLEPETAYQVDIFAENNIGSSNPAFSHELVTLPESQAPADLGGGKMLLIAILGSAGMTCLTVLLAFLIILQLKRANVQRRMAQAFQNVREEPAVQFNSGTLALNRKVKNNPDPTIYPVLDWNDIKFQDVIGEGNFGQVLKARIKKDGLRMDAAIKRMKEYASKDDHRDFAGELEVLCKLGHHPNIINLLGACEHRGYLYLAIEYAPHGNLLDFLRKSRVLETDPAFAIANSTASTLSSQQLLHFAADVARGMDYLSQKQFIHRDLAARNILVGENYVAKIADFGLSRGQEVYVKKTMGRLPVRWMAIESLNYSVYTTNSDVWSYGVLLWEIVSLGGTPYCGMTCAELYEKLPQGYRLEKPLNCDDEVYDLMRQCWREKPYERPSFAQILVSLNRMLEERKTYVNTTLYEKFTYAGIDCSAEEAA
Text: as §1

[3] = CD-1 mice, 10, 30 and 100 mg/kg BID, all dose groups

Cc1ccc(-n2nc(C(C)(C)C)cc2NC(=O)NCc2cc(F)ccc2Oc2ccc3c(cnn3CCO)c2)cc1 [Compound 72, 1-(3-tert-butyl-1-p-tolyl-1H-pyrazol-5-yl)-3-(5-fluoro-2-(1-(2-hydroxyethyl)-1H-indazol-5-yloxy)benzyl)urea]
IC50 (VEGFR2): 48 nM
IC50 (VEGFR): 74 nM
body weight loss (K562 cells; K562 tumor-bearing Scid-beige mice, throughout the course of treatment): less than 10%
% Regression (K562 cells; 30 mg/kg BID): Stasis
Complete responses (K562 cells; 30 mg/kg BID): 0/8
% Regression (K562 cells; 100 mg/kg BID): 93%
Complete responses (K562 cells; 100 mg/kg BID): 5/8
% Regression (K562 cells; 100 mg/kg QD): Stasis
Complete responses (K562 cells; 100 mg/kg QD): 0/8
inhibition of bFGF-induced angiogenesis (matrigel hemoglobin) ([1]; mice, 100 mg/kg active drug, p<0.05): 72%
bFGF-induced angiogenesis, dose response ([1]; mice, 10, 30 or 100 mg/kg active drug): inhibited bFGF-induced angiogenesis in a dose-dependent manner
IC50 (CYP3A4; substrate Midazolam): ~8000 nM
IC50 (CYP3A4; substrate Testosterone): ~10000 nM
ligand displacement, sodium channel (site 2) (sodium channel (site 2)): > 50%
IC50 (CYP2C9): 5000 nM
hERG Patch Clamp Inhibition (hERG): 64% Inhibition at 10 μM
IC50 (Abl (T315I)): 68 nM
IC50 (Erk and AKT): < 11 nM
Clinical chemistries [2, 3]: Within normal range (all dose groups)
Weight loss [2, 3]: <5% (all dose groups)
dose-limiting toxicities (DLTs) ([2]; CD-1 mice, up to 100 mg/kg BID): no dose-limiting toxicities (DLTs) were seen; also recorded: no observed DLTs
inhibition of autophosphorylation of BCR-Abl and phosphorylation of its substrates STAT5 and CrkL (immunoblot) (BCR-Abl): capable of inhibiting
IC50 (Tie2): < 33 nM
